# Results: ChEMBL document CHEMBL5634100, “Novel spiro[pyrrolidine-2,3'-quinoline]-2'-one derivatives containing piperazine fragment as potential chitin synthase inhibitors and antifungal agents: Design, synthesis and biological evaluation” (Eur J Med Chem, 2023)
# What was measured:
# Candida albicans [1] = experiment: Antimicrobial activity against Candida albicans ATCC 76615 incubated for 24 hrs by two fold serial dilution method; type: functional
# Aspergillus flavus [2] = experiment: Antimicrobial activity against Aspergillus flavus ATCC 16870 incubated for 24 hrs by two fold serial dilution method; type: functional
# Cryptococcus neoformans [3] = experiment: Antimicrobial activity against Cryptococcus neoformans ATCC 32719 incubated for 24 hrs by two fold serial dilution method; type: functional
# Candida tropicalis = experiment: Inhibition of Candida tropicalis ATCC 750 chitin synthase using UDP-GlcNAc as substrate at 300 ug/ml by TMB based microplate analyzer relative to control; conditions: dose 300.0 µg/ml
# Aspergillus fumigatus [4] = experiment: Antimicrobial activity against Aspergillus fumigatus GIMCC 3.19 incubated for 24 hrs by two fold serial dilution method; type: functional
# Candida albicans [5] = experiment: Antimicrobial activity against fluconazole-resistant Candida albicans ATCC 76615R incubated for 24 hrs by two fold serial dilution method; type: functional
# Aspergillus flavus [6] = experiment: Antimicrobial activity against Aspergillus flavus ATCC 16870 incubated for 24 hrs in presence of fluconazole by checkerboard method; type: functional
# Candida albicans [7] = experiment: Antimicrobial activity against micafungin-resistant Candida albicans ATCC 76615R incubated for 24 hrs by two fold serial dilution method; type: functional
# Cryptococcus neoformans [8] = experiment: Synergistic antimicrobial activity against Cryptococcus neoformans ATCC 32719 assessed as fractional inhibitory concentration index incubated for 24 hrs in presence of fluconazole by checkerboard method; type: functional
# Cryptococcus neoformans [9] = experiment: Antimicrobial activity against Cryptococcus neoformans ATCC 32719 incubated for 24 hrs in presence of fluconazole by checkerboard method; type: functional
# Aspergillus fumigatus [10] = experiment: Antimicrobial activity against Aspergillus fumigatus GIMCC 3.19 incubated for 24 hrs in presence of fluconazole by checkerboard method; type: functional
# Aspergillus flavus [11] = experiment: Synergistic antimicrobial activity against Aspergillus flavus ATCC 16870 assessed as fractional inhibitory concentration index incubated for 24 hrs in presence of fluconazole by checkerboard method; type: functional
# Candida albicans [12] = experiment: Additive antimicrobial activity against Candida albicans ATCC 76615 assessed as fractional inhibitory concentration index incubated for 24 hrs in presence of polyoxin B by checkerboard method; type: functional
# [13] = Inhibition of Candida tropicalis ATCC 750 chitin synthase using UDP-GlcNAc as substrate by TMB based microplate analyzer
# Cryptococcus neoformans [14] = experiment: Antimicrobial activity against Cryptococcus neoformans ATCC 32719 incubated for 24 hrs in presence of polyoxin B by checkerboard method; type: functional
# Aspergillus flavus [15] = experiment: Antimicrobial activity against Fluconazole-resistant Aspergillus flavus ATCC 16870R incubated for 24 hrs by two fold serial dilution method; type: functional
# Aspergillus fumigatus [16] = experiment: Antimicrobial activity against Fluconazole-resistant Aspergillus fumigatus GIMCC 3.19R incubated for 24 hrs by two fold serial dilution method; type: functional
# Aspergillus flavus [17] = experiment: Antimicrobial activity against Aspergillus flavus ATCC 16870 assessed as inhibition of cell wall synthesis in presence of sorbitol; type: functional
# Candida albicans [18] = experiment: Additive antimicrobial activity against Candida albicans ATCC 76615 assessed as fractional inhibitory concentration index incubated for 24 hrs in presence of fluconazole by checkerboard method; type: functional
# Candida albicans [19] = experiment: Antimicrobial activity against Candida albicans ATCC 76615 incubated for 24 hrs in presence of polyoxin B by checkerboard method; type: functional
# Cryptococcus neoformans [20] = experiment: Synergistic antimicrobial activity against Cryptococcus neoformans ATCC 32719 assessed as fractional inhibitory concentration index incubated for 24 hrs in presence of polyoxin B by checkerboard method; type: functional
# Aspergillus fumigatus [21] = experiment: Synergistic antimicrobial activity against Aspergillus fumigatus GIMCC 3.19 assessed as fractional inhibitory concentration index incubated for 24 hrs in presence of polyoxin B by checkerboard method; type: functional
# Aspergillus fumigatus [22] = experiment: Antimicrobial activity against Aspergillus fumigatus GIMCC 3.19 assessed as inhibition of cell wall synthesis in presence of sorbitol; type: functional
# Cryptococcus neoformans [23] = experiment: Antimicrobial activity against Cryptococcus neoformans ATCC 32719 assessed as inhibition of cell wall synthesis in presence of sorbitol; type: functional
# Aspergillus flavus [24] = experiment: Antimicrobial activity against Aspergillus flavus ATCC 16870 incubated for 24 hrs in presence of polyoxin B by checkerboard method; type: functional
# Cryptococcus neoformans [25] = experiment: Antimicrobial activity against Fluconazole-resistant Cryptococcus neoformans ATCC 32719R incubated for 24 hrs by two fold serial dilution method; type: functional
# Candida albicans [26] = experiment: Antimicrobial activity against Candida albicans ATCC 76615 incubated for 24 hrs in presence of fluconazole by checkerboard method; type: functional
# Aspergillus fumigatus [27] = experiment: Synergistic antimicrobial activity against Aspergillus fumigatus GIMCC 3.19 assessed as fractional inhibitory concentration index incubated for 24 hrs in presence of fluconazole by checkerboard method; type: functional
# Aspergillus fumigatus [28] = experiment: Antimicrobial activity against Aspergillus fumigatus GIMCC 3.19 incubated for 24 hrs in presence of polyoxin B by checkerboard method; type: functional
# Aspergillus flavus [29] = experiment: Synergistic antimicrobial activity against Aspergillus flavus ATCC 16870 assessed as fractional inhibitory concentration index incubated for 24 hrs in presence of polyoxin B by checkerboard method; type: functional
# Candida albicans [30] = experiment: Antimicrobial activity against Candida albicans ATCC 76615 assessed as inhibition of cell wall synthesis in presence of sorbitol; type: functional
structure (smiles),measurement,setting,value
O=C(c1ccccc1I)N1CCN(CC(=O)N2CCCC23Cc2ccccc2NC3=O)CC1 (stereo not given),MIC,Candida albicans [1],8 µg/mL
same,MIC,Aspergillus flavus [2],16 µg/mL
same,MIC,Cryptococcus neoformans [3],32 µg/mL
same,inhibition,Candida tropicalis,54.2%
same,MIC,Aspergillus fumigatus [4],16 µg/mL
Cc1cccc(C(=O)N2CCN(CC(=O)N3CCCC34Cc3ccccc3NC4=O)CC2)c1 (stereo not given),MIC,Candida albicans [1],16 µg/mL
same,MIC,Aspergillus flavus [2],32 µg/mL
same,MIC,Cryptococcus neoformans [3],64 µg/mL
same,inhibition,Candida tropicalis,49.4%
same,MIC,Aspergillus fumigatus [4],32 µg/mL
O=C(c1ccc([N+](=O)[O-])cc1)N1CCN(CC(=O)N2CCCC23Cc2ccccc2NC3=O)CC1 (stereo not given),MIC,Candida albicans [5],32 µg/mL
same,MIC,Aspergillus flavus [6],2 µg/mL
same,MIC,Candida albicans [7],128 µg/mL
same,fractional inhibitory concentration index (FICI),Cryptococcus neoformans [8],0.75
same,MIC,Cryptococcus neoformans [9],2 µg/mL
same,MIC,Aspergillus fumigatus [10],2 µg/mL
same,fractional inhibitory concentration index (FICI),Aspergillus flavus [11],0.75
same,fractional inhibitory concentration index (FICI),Candida albicans [12],1.125
same,MIC,Candida albicans [1],2 µg/mL
same,IC50,[13],110 µM
same,MIC,Cryptococcus neoformans [14],4 µg/mL
same,MIC,Aspergillus flavus [15],128 µg/mL
same,MIC,Aspergillus flavus [2],2 µg/mL
same,MIC,Aspergillus fumigatus [16],64 µg/mL
same,MIC,Cryptococcus neoformans [3],2 µg/mL
same,MIC,Aspergillus flavus [17],32 µg/mL
same,fractional inhibitory concentration index (FICI),Candida albicans [18],1.125
same,MIC,Candida albicans [19],1 µg/mL
same,fractional inhibitory concentration index (FICI),Cryptococcus neoformans [20],0.5
same,fractional inhibitory concentration index (FICI),Aspergillus fumigatus [21],0.75
same,MIC,Aspergillus fumigatus [22],64 µg/mL
same,MIC,Cryptococcus neoformans [23],64 µg/mL
same,MIC,Aspergillus flavus [24],1 µg/mL
same,MIC,Cryptococcus neoformans [25],64 µg/mL
same,MIC,Candida albicans [26],0.5 µg/mL
same,fractional inhibitory concentration index (FICI),Aspergillus fumigatus [27],1
same,MIC,Aspergillus fumigatus [28],4 µg/mL
same,inhibition,Candida tropicalis,80.2%
same,fractional inhibitory concentration index (FICI),Aspergillus flavus [29],0.375
same,MIC,Aspergillus fumigatus [4],1 µg/mL
same,MIC,Candida albicans [30],64 µg/mL
O=C(c1cccc(Br)c1)N1CCN(CC(=O)N2CCCC23Cc2ccccc2NC3=O)CC1 (stereo not given),MIC,Candida albicans [1],8 µg/mL
same,IC50,[13],320 µM
same,MIC,Aspergillus flavus [2],16 µg/mL
same,MIC,Cryptococcus neoformans [3],32 µg/mL
same,inhibition,Candida tropicalis,58.8%
same,MIC,Aspergillus fumigatus [4],16 µg/mL
OC(Cn1cncn1)(Cn1cncn1)c1ccc(F)cc1F [FLUCONAZOLE],MIC,Candida albicans [5],> 256 µg/mL
same,MIC,Candida albicans [1],4 µg/mL
same,MIC,Aspergillus flavus [15],> 256 µg/mL
same,MIC,Aspergillus flavus [2],8 µg/mL
same,MIC,Aspergillus fumigatus [16],> 256 µg/mL
same,MIC,Cryptococcus neoformans [3],8 µg/mL
same,MIC,Cryptococcus neoformans [25],> 256 µg/mL
same,MIC,Aspergillus fumigatus [4],4 µg/mL
CCc1ccc(C(=O)N2CCN(CC(=O)N3CCCC34Cc3ccccc3NC4=O)CC2)cc1 (stereo not given),MIC,Candida albicans [1],32 µg/mL
same,MIC,Aspergillus flavus [2],128 µg/mL
same,MIC,Cryptococcus neoformans [3],32 µg/mL
same,inhibition,Candida tropicalis,52.8%
same,MIC,Aspergillus fumigatus [4],64 µg/mL
COc1cccc(C(=O)N2CCN(CC(=O)N3CCCC34Cc3ccccc3NC4=O)CC2)c1 (stereo not given),MIC,Candida albicans [1],32 µg/mL
same,MIC,Aspergillus flavus [2],64 µg/mL
same,MIC,Cryptococcus neoformans [3],128 µg/mL
same,inhibition,Candida tropicalis,50.7%
same,MIC,Aspergillus fumigatus [4],32 µg/mL
O=C(c1ccccc1)N1CCN(CC(=O)N2CCCC23Cc2ccccc2NC3=O)CC1 (stereo not given),MIC,Candida albicans [1],16 µg/mL
same,MIC,Aspergillus flavus [2],32 µg/mL
same,MIC,Cryptococcus neoformans [3],64 µg/mL
same,inhibition,Candida tropicalis,47%
same,MIC,Aspergillus fumigatus [4],32 µg/mL
